This passage reports IC50 results from ChEMBL document CHEMBL1129564, “Tyrosine kinase inhibitors. 10. Isomeric 4-[(3-bromophenyl)amino]pyrido[d]-pyrimidines are potent ATP binding site inhibitors of the tyrosine kinase function of the epidermal growth factor receptor” (J Med Chem, 1996).

Each structure is given as a SMILES string.

A word on the IC50: it is the concentration needed to halve the response being measured. Higher therefore signals weaker potency in that assay.

One test deals with T1, Epidermal growth factor receptor (Homo sapiens, UniProt P00533). The test is described as follows: Inhibition of Epidermal growth factor receptor autophosphorylation in A431 human epidermoid carcinoma cells.
T1 sequence (P00533 whole entry): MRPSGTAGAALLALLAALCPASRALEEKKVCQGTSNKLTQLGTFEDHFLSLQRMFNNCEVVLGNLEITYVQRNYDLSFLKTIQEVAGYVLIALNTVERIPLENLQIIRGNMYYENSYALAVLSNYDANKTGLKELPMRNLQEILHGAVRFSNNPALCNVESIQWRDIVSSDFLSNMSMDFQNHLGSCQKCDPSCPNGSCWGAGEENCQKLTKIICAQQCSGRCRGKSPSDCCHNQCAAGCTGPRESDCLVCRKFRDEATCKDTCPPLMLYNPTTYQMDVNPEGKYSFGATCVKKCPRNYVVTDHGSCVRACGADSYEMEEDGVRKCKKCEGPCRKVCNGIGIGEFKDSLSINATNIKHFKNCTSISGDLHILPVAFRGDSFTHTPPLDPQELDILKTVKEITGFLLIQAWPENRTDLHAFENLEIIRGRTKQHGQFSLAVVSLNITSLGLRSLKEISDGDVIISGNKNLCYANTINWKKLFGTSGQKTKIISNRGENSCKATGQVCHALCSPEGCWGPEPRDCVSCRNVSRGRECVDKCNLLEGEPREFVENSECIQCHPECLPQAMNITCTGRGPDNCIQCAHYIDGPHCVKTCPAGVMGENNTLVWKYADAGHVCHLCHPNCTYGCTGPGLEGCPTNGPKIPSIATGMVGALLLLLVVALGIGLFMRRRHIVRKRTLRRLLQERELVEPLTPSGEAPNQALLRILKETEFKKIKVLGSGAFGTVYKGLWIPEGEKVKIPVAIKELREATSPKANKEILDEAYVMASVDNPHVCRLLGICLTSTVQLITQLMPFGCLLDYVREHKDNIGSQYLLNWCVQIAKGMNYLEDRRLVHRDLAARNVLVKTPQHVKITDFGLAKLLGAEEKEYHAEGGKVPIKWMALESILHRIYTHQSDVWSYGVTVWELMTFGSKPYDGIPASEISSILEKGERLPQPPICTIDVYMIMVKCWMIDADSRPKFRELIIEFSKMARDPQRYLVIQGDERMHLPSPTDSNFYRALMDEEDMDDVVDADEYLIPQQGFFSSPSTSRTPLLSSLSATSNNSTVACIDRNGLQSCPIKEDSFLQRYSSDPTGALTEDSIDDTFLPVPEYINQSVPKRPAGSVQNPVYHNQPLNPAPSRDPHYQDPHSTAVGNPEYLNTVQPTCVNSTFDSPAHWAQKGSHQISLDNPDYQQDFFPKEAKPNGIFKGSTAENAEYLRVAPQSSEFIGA
For the compound `Nc1cc2ncnc(NCc3ccccc3)c2cn1`, the midpoint of inhibition, the IC50, lay at 2080 nM.
With `CN(C)c1ccc2c(Nc3cccc(Br)c3)ncnc2n1`, the IC50 is 2300 nM.
Still for that read-out and setting: the value for `Nc1cc2c(Nc3cccc(Br)c3)ncnc2cn1` was 16 nM.
As to `CN(C)c1cc2ncnc(Nc3cccc(Br)c3)c2cn1`, 14 nM corresponded to half-maximal inhibition (IC50).
Turning to `CNc1cc2c(Nc3cccc(Br)c3)ncnc2cn1`, it took 15 nM to reach half-maximal inhibition (IC50).
The same measure, in the same setting: the value for `CNc1cc2ncnc(Nc3cccc(Br)c3)c2cn1` was 16 nM.

Another test has as its target T1, Epidermal growth factor receptor. The experiment in a line: biochemical.
Description: Inhibitory potency against isolated epidermal growth factor receptor (EGFR) from human A431 carcinoma cells
The compound `Clc1ccc2ncnc(Nc3cccc(Br)c3)c2n1` yielded an IC50 of 18 nM.
`Fc1ccc2c(Nc3cccc(Br)c3)ncnc2n1`: the IC50 came to 684 nM.
For `CNc1ccc2cncnc2c1`, inhibition was half-maximal at 4 nM (IC50).
`COc1ccc2cncnc2c1` gave an IC50 of 10 nM.
The same measure, in the same setting: the value for `CN(C)c1ccc2c(Nc3cccc(Br)c3)ncnc2n1` was 324 nM; that for `COc1ccc2ncnc(Nc3cccc(Br)c3)c2n1` was 4.3 nM; that for `Brc1cccc(Nc2ncnc3cnccc23)c1` was 51 nM.
Same read-out and setting: the value for `c1ccc(CNc2ncnc3cnccc23)cc1` was 2030 nM; that for `Nc1cc2c(Nc3cccc(Br)c3)ncnc2cn1` was 0.13 nM.
For the compound `COc1ccc2ncncc2c1`, the IC50 was found to be 30 nM.
On the same count and under the same terms, the value for `Brc1cccc(Nc2ncnc3ccncc23)c1` was 35 nM.
Same read-out and setting: the value for `CN(C)c1ccc2cncnc2c1` was 11 nM; that for `CNC1=CC2N=CN(C)/C(=N\c3cccc(Br)c3)C2C=N1` (configuration not stated) was 3.1 nM; that for `COc1ccc(CNc2cc3c(Nc4cccc(Br)c4)ncnc3cn2)cc1` was 2.3 nM.
Same read-out and setting: the value for `Nc1ccc2ncncc2c1` was 0.79 nM; that for `c1ccc(CNc2ncnc3cccnc23)cc1` was 603 nM.
In turn, `CNc1ccc2ncncc2c1` returned an IC50 of 7 nM.
Same read-out and setting: the value for `CNc1cc2c(Nc3ccccc3)ncnc2cn1` was 9 nM; that for `c1ccc(CNc2ncnc3ncccc23)cc1` was over 10000 nM; that for `Brc1cccc(Nc2ncnc3ncccc23)c1` was 688 nM.
Same read-out and setting: the value for `c1ccc(CNc2ncnc3ccncc23)cc1` was 1460 nM.
On the same count and under the same terms, the value for `Fc1ccc2ncnc(Nc3cccc(Br)c3)c2n1` was 44 nM; that for `Brc1cccc(Nc2ncnc3cccnc23)c1` was 34 nM; that for `CN(C)c1ccc2ncncc2c1` was 120 nM.
Take `Nc1ccc2cncnc2c1`: half-maximal inhibition (IC50) was put at 0.1 nM. This IC50 lies about 1200-fold lower than the previous one.
The same measure, in the same setting: the value for `c1ccc2ncncc2c1` [QUINAZOLINE] was 27 nM.
